Laboratory results reported in the supplement of paper PMC10307832.

Tests used:
Assay in all cases: relative viability (nuclei count vs DMSO), 5 days (fraction); higher = more cells survive
[1] = compound: CC1=CC(=CC=C1)NC2=NC(=CS2)C3=CC=NC=C3 + O=C(c1cc(Cc2n[nH]c(=O)c3ccccc23)ccc1F)N1CCN(C(=O)C2CC2)CC1 [Olaparib] (partner 8 µM)
Outline: (§1)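 For relative viability, nuclei counts in treated wells were divided by those in vehicle wells. Lung cancer cell lines had been pin-tool dosed in 1536-well plates the day after seeding and cultured for 5 days, then fixed and stained in one step (final 0.05% Triton X-100, 1% formaldehyde, 1 ug/ml Hoechst) and imaged at 4×. Doses were one drug alone or a fixed anchor-drug dose plus five library-drug doses (not always all listed) in √10 steps, and values are duplicate-plate medians.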

[2] = compound: CC1=CC(=CC=C1)NC2=NC(=CS2)C3=CC=NC=C3 + Nc1nc2[nH]cc(CCc3ccc(C(=O)N[C@@H](CCC(=O)O)C(=O)O)cc3)c2c(=O)[nH]1 [Pemetrexed] (partner 0.2 µM)
Outline: as §1

[3] = compound: Cc1ccc(NC(=O)c2ccc(CN3CCN(C)CC3)cc2)cc1Nc1nc(-c2cccnc2)cs1 [Masitinib] + O=C(CCCCCCC(=O)Nc1ccccc1)NO [Vorinostat] (partner 1 µM)
Outline: as §1

[4] = compound: Cc1ccc(NC(=O)c2ccc(CN3CCN(C)CC3)cc2)cc1Nc1nc(-c2cccnc2)cs1 [Masitinib] + CS(=O)(=O)N1CCN(Cc2cc3nc(-c4cccc5[nH]ncc45)nc(N4CCOCC4)c3s2)CC1 [Pictilisib] (partner 1 µM)
Outline: as §1

Cell Line	relative viability ([1]; first compound 0.08 µM)	relative viability ([1]; first compound 0.253 µM)	relative viability ([1]; first compound 0.8 µM)	relative viability ([1]; first compound 2.53 µM)	relative viability ([1]; first compound 8 µM)	relative viability ([2]; first compound 0.08 µM)	relative viability ([2]; first compound 0.253 µM)	relative viability ([2]; first compound 0.8 µM)	relative viability ([2]; first compound 2.53 µM)	relative viability ([2]; first compound 8 µM)	relative viability ([3]; first compound 0.01 µM)	relative viability ([3]; first compound 0.03162 µM)	relative viability ([3]; first compound 0.1 µM)	relative viability ([3]; first compound 0.3162 µM)	relative viability ([3]; first compound 1 µM)	relative viability ([4]; first compound 0.01 µM)	relative viability ([4]; first compound 0.03162 µM)	relative viability ([4]; first compound 0.1 µM)	relative viability ([4]; first compound 0.3162 µM)	relative viability ([4]; first compound 1 µM)
201T	0.853	0.845	0.788	0.826	0.757	0.339	0.293	0.321	0.301	0.334	0.74	1.05	0.774	0.78	0.914	0.642	0.623	0.646	0.556	0.639
A549	0.264	0.37	0.353	0.261	0.449	–	–	–	–	–	–	–	–	–	–	0.459	0.48	0.478	0.576	0.566
A-427	0.456	0.576	0.565	0.683	0.615	0.915	1.02	0.987	0.899	0.932	0.608	0.827	0.791	0.826	0.827	–	0.55	–	0.687	0.601
ABC-1	0.48	–	0.735	0.525	0.574	–	–	–	–	–	1.05	0.997	1.44	1.15	0.877	0.686	0.623	0.977	0.652	0.61
BEN	0.928	1.15	1.1	0.975	1.09	0.685	0.841	0.936	0.584	0.682	0.616	0.533	0.557	0.528	0.557	0.638	0.51	0.71	0.555	0.627
CAL-12T	0.614	0.677	0.609	0.792	0.617	1.19	0.94	1.15	1.05	1.07	0.942	0.756	0.904	0.986	0.684	0.519	0.377	0.694	0.392	0.293
COR-L23	0.308	0.283	0.245	0.322	0.285	0.184	0.194	0.201	0.189	0.184	0.532	0.411	0.435	0.46	0.373	0.751	0.749	0.844	0.932	0.893
COR-L 105	0.575	0.499	0.477	0.541	0.457	1.01	0.903	0.898	1.02	0.797	0.741	1.09	0.971	0.78	0.841	0.396	0.356	0.395	0.412	0.428
Calu-6	0.422	0.471	0.43	0.479	0.407	–	–	–	–	–	–	–	–	–	–	0.905	0.857	1.06	0.988	0.861
ChaGo-K-1	0.407	0.389	0.424	0.418	0.351	0.259	0.272	0.249	0.266	0.252	0.901	0.711	0.853	0.775	0.732	0.929	0.466	0.929	0.823	0.598
EBC-1	0.575	0.417	0.328	0.41	0.451	–	–	–	–	–	–	–	–	–	–	0.348	0.357	0.427	0.309	0.413
EKVX	0.617	0.72	–	0.525	0.371	0.361	0.333	–	0.32	0.328	0.626	0.653	0.643	0.678	0.696	–	0.364	0.463	0.275	0.412
EMC-BAC-2	0.424	–	0.384	0.366	0.326	0.393	0.402	0.413	0.432	0.393	0.38	–	0.441	0.445	0.335	0.553	0.518	0.58	0.552	0.503
EPLC-272H	0.79	0.673	0.551	0.687	0.619	0.404	0.375	0.264	0.31	0.332	0.4	–	0.392	0.464	0.425	0.29	0.304	0.319	0.284	0.293
H3255	0.542	0.569	0.562	0.533	0.475	0.585	0.546	0.568	0.54	0.54	0.9	0.9	0.544	0.584	0.761	0.489	0.501	0.542	0.456	0.407
HARA	0.936	0.701	0.524	0.445	0.839	0.267	0.22	0.203	0.255	0.276	0.498	0.539	0.57	0.521	0.485	0.389	0.331	0.448	0.372	0.412
HCC-15	0.713	0.696	0.717	0.677	0.694	0.222	0.214	0.203	0.194	0.214	0.789	0.814	0.868	0.827	0.811	0.604	0.72	0.672	0.77	0.686
HCC-44	0.952	0.791	0.764	0.668	0.646	0.537	0.55	0.586	0.663	0.607	0.914	1.1	1.06	1.06	1.03	0.633	0.436	0.59	0.509	0.543
